Test results as given in patent US8198317B2, “Methylenedioxy phenolic compounds and their use to treat disease” (The Ohio State University Research Foundation, priority 2008, dated 2012).

Tests used:
[1] = test system: Watanabe Heritable Hyperlipidemic Rabbits (WHHL); assay: 8-Isoprostane enzyme linked immunoassay in WHHL rabbits; assay type: in vivo, rabbit; conditions: vs control groups
Protocol: […] […] Both samples underwent affinity purification (Cayman Chemical, Ann Arbor, Mich.) and then measurement of 8-isoprostane with the Stat-8-Isoprostane ELISA kit (Cayman Chemical, Ann Arbor, Mich.). […] The protein levels in liver lysates were determined by BCA Protein Assay (Pierce, Rockford, Ill.).

[2] = test system: LDL receptor; assay: LDL receptor mRNA by RT-PCR in HepG2 cells; assay type: cell-based, human; conditions: HepG2, time dependent and dose dependent
Protocol: FIG. 5E is graph showing time course of low density lipoprotein receptor (LDLR) messenger RNA (mRNA) with INV-75 assessed by quantitative real time polymerase chain reaction (RT-PCR). A total of three experiments were performed. *, p<0.01 by ANOVA compared to vehicle.
FIG. 5F is a graph showing dose dependency experiments of low density lipoprotein receptor (LDLR) messenger RNA (mRNA) measurement with INV-75. HepG2 cells were stimulated with multiple concentrations of INV-75 for 1 hour and LDL mRNA expression was measured by quantitative real time polymerase chain reaction (RT-PCR). A total of three experiments were performed. *, p<0.01 by ANOVA compared to vehicle. Dose of INV-75 is log molar concentration.
Next we investigated the effect of INV-75 in regulating LDL receptor expression in the same cells using a similar protocol to assess dose and temporal dependence. FIGS. 5E and 5F depict the time course of LDL receptor expression and dose dependence in response to INV-75. […] INV-75 had no effects on SREBP-1 regulation (data not shown). Simultaneously multiple genes involved in cholesterol synthesis and regulation, apolipoprotein gene expression and expression of PCSK9 (Proprotein convertase subtilisin/kexin type 9) was tested. […]

[3] = molecular target: T1, PPARγ (Homo sapiens, UniProt P37231); assay: GAL4-PPARγ-LBD luciferase assay in HepG2 cells; assay type: cell-based; conditions: 1 μM to 1000 μM
T1 construct: GAL4-PPARδ-LBD plasmid+UAS-Luciferase and GAL4-PPARα-LBD plasmid+UAS-Luciferase; expressed in transfected cells; host or cells: HepG2
From the text: We used a reporter gene assay in HepG2 cells to screen for agonists of the peroxisome proliferator-activated receptors. Peroxisome proliferator-activated receptors (PPARs) and other members of the nuclear hormone receptor family are important drug targets for the treatment of metabolic diseases. PPARs play crucial roles in lipid and glucose metabolism, respectively. Therefore, screening methods that help to rapidly identify activators of these receptors should be of considerable value. INV-75 activated a classic PPARα gene, Acetyl-CoA Oxidase (ACO) in a dose dependent and time dependent fashion (FIG. 6A). The time course experiment was performed in presence of INV-75 up to 15 hours. […] We next tested the specificity of INV-75 for PPARα by performing experiments in HepG2 cells transfected with yeast GAL4-PPARα-LBD plasmid+UAS-Luciferase; GAL4-PPARδ-LBD plasmid+UAS-Luciferase and […]. The PPARα, PPARδ and PPARγ binding assays were performed using multiple concentrations of INV-75 (1 μM, 10 μM, 100 μM and 1000 μM). The level of luciferase activity corresponded to the degree of PPAR activation. The results were compared with classic PPAR agonists such as WY-14643 (PPARα agonist), Bezafibrate (PPARδ agonist) and Rosiglitazone ([…]).

T1 sequence (P37231 238-503 limits assumed, species assumed): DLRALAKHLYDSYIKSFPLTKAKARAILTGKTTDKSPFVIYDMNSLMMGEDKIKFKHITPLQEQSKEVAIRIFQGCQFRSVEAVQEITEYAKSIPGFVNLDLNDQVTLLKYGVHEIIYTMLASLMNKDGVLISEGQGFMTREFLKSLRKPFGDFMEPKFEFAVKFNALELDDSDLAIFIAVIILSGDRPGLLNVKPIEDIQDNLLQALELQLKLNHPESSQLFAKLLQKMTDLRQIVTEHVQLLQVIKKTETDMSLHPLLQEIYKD

**Q.** How did the “8-Isoprostane production in aortic homogenates” value [1] turn out when `CC(=O)Oc1cc2c(cc1[N+](=O)[O-])OCO2` [INV-75, 3,4-methylenedioxy-6-nitrophenyl acetate] was run?
**A.** Its value is “significantly lower”.

**Q.** And the “8-Isoprostane production in plasma” value [1]?
**A.** The value was “significantly lower”.

**Q.** And the LDL receptor expression [2]?
**A.** The LDL receptor expression was “increases”.

**Q.** And the “effects on PPARγ” value [3]?
**A.** Its value is “without effects”.
